This note sets out measurements from patent US11178874B2, “Articles comprising antioxidizing agents and bacteriostatic agents, and production processes thereof” (BENVIC SAS, priority 2016, dated 2021).

The structures appear in SMILES notation.

This assay has as its system microorganisms usually present in the environment. Put plainly: Counting of microorganisms on a growth plate after incubation (bacteriostatic effect of solutions). The class given is cell-based. The following applies: for cfu/plate: control 597 cfu; for Reduction % observed: vs control 597 cfu. On the procedure:
The counting of microorganisms was carried out on a growth plate, after the incubation period (as regards the type of microorganisms, they are microorganisms usually present in the environment). […] Then, the bacteriostatic effect was evaluated of:
a solution of selenium phloroglucinol (20 ppm of selenium, i.e. corresponding to 0.002% by weight);
three solutions of zinc PCA, with a concentration of zinc of 10 ppm, 20 ppm and 30 ppm respectively (i.e. respectively corresponding to 0.001%, 0.002% and 0.003% by weight).
In order to evaluate the synergic effect between zinc and antioxidizing agent, the tests indicated above were repeated, using three solutions separately, respectively containing: selenium 20 ppm+zinc 10 ppm; selenium 20 ppm+zinc 20 ppm; selenium 20 ppm+zinc 30 ppm.

Consider `O=C1CC[C@@H](C(=O)[O-])N1.O=C1CC[C@@H](C(=O)[O-])N1.[Zn+2]` [Zinc], for which the cfu/plate (solution 10 ppm) was 571 cfu/plate, the cfu/plate (solution 20 ppm) is 550 cfu/plate and the cfu/plate (solution 30 ppm) is listed as 491 cfu/plate. Also, the Reduction % observed by setting is: (solution 10 ppm) 5.1%; (solution 20 ppm) 6.0%; (solution 30 ppm) 17.1%.
